Laboratory results as given in patent publication US20060008483A1, “Dispersions of lipids for use as therapeutic and cosmetic agents and intracellular delivery vehicles” (Biotech Tools SA, priority 2002, published 2006).

How the values were obtained:
[1] = test system: Chinese hamster Ovary cells or K562 human myeloid cells; conditions: MLV, WO 95/17378; cited from earlier work
[2] = test system: COS-7L cells (monkey fibroblasts); assay: Transfection of fibroblast cells with micellar dispersions of an amidinium salt, beta-galactosidase activity assay; type: cell-based; conditions: pCMV-β plasmid, relative to Lipofectamine plus, 3 h + 20 h incubation
Method: Functional transfection efficiency was then measured by means of a beta-galactosidase (hereinafter referred as β-GAL) activity assay as follows: cells were lysed by adding 250 μl of a lysis buffer (0.1 M potassium phosphate, 0.5% Triton® X-100, 0.1% deoxycholate, pH 7.0). The cell lysate (50 μl) was mixed with 50 μl o-nitrophenyl-β-D-galactopyranoside (1.54 mg/ml in 0.1 potassium phosphate buffer, pH 7.0) and incubated at 37° C. for 30 minutes. The reaction was terminated by adding 160 μl of 1 M Na2CO3 and absorbance was determined using a spectrophotometer at 405 nm. β-GAL activity was calculated using a β-GAL standard curve.
Immediately before the transfection experiments, the amidinium salt of Example 9 was dissolved at a concentration of 0.1 mg/mL in water containing 5.0 g/l glucose and 0.1 mg/mL protamine sulfate. The solution was successively vortexed, heated during 15 minutes at 50° C. and then cooled at 20° C.
COS-7L cells (monkey fibroblasts) were grown in DMEM supplemented with 10% heat inactivated foetal bovine serum and penicellin 100 IU/mL-streptomycin 100 μg/mL, and were maintained at 37° C. in a humidified 5% incubator. […]
(§1) Transfection efficiency was measured in terms of beta-galactosidase activity using the beta-galactosidase activity assay described in Example 5 above. Cytotoxicity was determined as described in Example 2 above.

[3] = test system: COS-7L cells (monkey fibroblasts); assay: Cytotoxicity in the micellar transfection experiment, determined as in Example 2; type: cell-based; conditions: transfection conditions of Example 12
Method: The resulting titrated liposomes were cooled and then passed through a 0.2 μm filter (in order to eliminate large particles) and an average liposome size of 90 nm was measured. Filtered liposomes were then packed in sterile vials and stored at 4° C. […] Cytotoxicity was determined by means of a (3-(4,5-dimethylthiazol-2-yl)-2,5-diphenyl tetrazolium bromide assay, using a kit commercially available from Promega Benelux (Leyden, The Netherlands). COS-7 monkey fibroblast cell survival was expressed as the amount of dye reduction relative to that of the untreated control cells. The titrated liposomes are not toxic on COS-7 cells, as determined by the Cytotox 96 non-radioactive cytotoxy assay G 1780.
COS-7L cells (monkey fibroblasts) were grown in DMEM supplemented with 10% heat inactivated foetal bovine serum and penicellin 100 IU/mL-streptomycin 100 μg/mL, and were maintained at 37° C. in a humidified 5% incubator. One day prior to the transfection experiment, the cells were seeded in a 24-well culture dish and allowed to reach at least 80% confluency.
as §1

[4] = Critical micellar concentration by surface tension (langmuir balance); type: physicochemical; conditions: 25° C.
Method: The amidinium salt of example 9 was dissolved at various concentrations in either water pH 7.0, PB (20 mM phosphate, pH 7.3) or in PBS (20 mM phosphate buffer, 150 mM NaCl, pH 7.3).
A langmuir balance (Krüss K12) was used to measure the surface tension of a solution of increasing amino-amidine concentration. […] The corresponding concentration was taken as CMC.
To determine the effect of protamine sulfate on the CMC protamine sulfate (PS) was added at a final concentration of 0.2 mg/mL to solutions of increasing concentration of the amidinium salt of Example 9.

SMILES	transfection efficiencies [1] [%]	β-gal relative activity [2] [%]	Toxicity [3]	CMC ([4]; in PB (20 mM phosphate, pH 7.3)) [M]	CMC ([4]; in PBS (20 mM phosphate buffer, 150 mM NaCl, pH 7.3)) [M]	CMC ([4]; in PBS + protamine sulfate 0.2 mg/mL) [M]	CMC ([4]; in water pH 7.0, in M)
CCCCCCCCCCCCCCN=C(CCNCCCCCCCCCCCCCC)NC(C)(C)C [DiC14iPr, N-terbutyl-N′-tetradecyl-3-tetradecyl-aminopropionamidine]	60 to 68	150	None	–	–	–	–
CCCCCCCCCCCCCCN=C(CCNCCCCCCCCCCCCCC)NC(C)(C)C [Example 9, N-terbutyl-N′-tetradecyl-3-tetradecyl-aminopropionamidine]	–	–	–	5.25e-05	6.75e-05	2e-05	5×10^−4
